The term inhibition denotes the percentage by which the read-out fell short of the control. The Ki is the dissociation constant of the complex between target and ligand, obtained from inhibition or displacement.

From ChEMBL document CHEMBL3862033 (J Med Chem, 2016) come the findings set out here.

Experiment [1] concerns the target T1, 5-hydroxytryptamine receptor 1A (Homo sapiens) (UniProt P08908).
T1 sequence (whole entry): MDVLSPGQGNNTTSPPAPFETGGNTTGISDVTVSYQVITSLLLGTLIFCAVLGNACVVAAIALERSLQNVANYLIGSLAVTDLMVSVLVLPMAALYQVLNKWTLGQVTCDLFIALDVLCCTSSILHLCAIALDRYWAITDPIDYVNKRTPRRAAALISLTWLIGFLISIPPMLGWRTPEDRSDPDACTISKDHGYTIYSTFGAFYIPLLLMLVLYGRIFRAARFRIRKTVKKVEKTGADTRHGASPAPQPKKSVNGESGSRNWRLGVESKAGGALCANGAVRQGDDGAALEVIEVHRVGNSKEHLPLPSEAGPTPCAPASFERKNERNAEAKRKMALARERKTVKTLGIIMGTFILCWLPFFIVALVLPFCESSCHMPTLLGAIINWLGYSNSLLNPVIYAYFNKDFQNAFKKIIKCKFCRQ
Nature of the experiment: Displacement of [3H]WAY100635 from human 5-HT1AR expressed in CHO cell membranes at 10 uM incubated for 90 mins under dark condition by microbeta scintillation counting method relative to control.

In experiment [2] the target is 5-hydroxytryptamine receptor 1B (Homo sapiens) (UniProt P28222). Nature of the experiment: Displacement of [3H]5-CT from human 5-HT1BR expressed in HEK cell membranes at 10 uM incubated for 90 mins under dark condition by microbeta scintillation counting method relative to control. The following applies: HEK293. A general note: Loss of bound radioactivity is the signal in a displacement assay; it reports binding, not function.
5-hydroxytryptamine receptor 1B (Homo sapiens), sequence (P28222 whole entry): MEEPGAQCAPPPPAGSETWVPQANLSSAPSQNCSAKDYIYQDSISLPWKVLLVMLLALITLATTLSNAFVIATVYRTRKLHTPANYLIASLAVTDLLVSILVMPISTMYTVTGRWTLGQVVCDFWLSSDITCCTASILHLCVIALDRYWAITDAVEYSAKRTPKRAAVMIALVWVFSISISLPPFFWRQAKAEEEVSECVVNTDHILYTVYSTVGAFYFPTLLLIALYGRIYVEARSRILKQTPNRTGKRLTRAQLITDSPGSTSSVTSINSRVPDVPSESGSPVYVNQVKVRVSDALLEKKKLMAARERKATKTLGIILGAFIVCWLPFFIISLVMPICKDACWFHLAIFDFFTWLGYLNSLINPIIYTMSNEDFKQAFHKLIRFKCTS

Experiment [3] concerns the target 5-hydroxytryptamine receptor 1D (Homo sapiens) (UniProt P28221). Nature of the experiment: Displacement of [3H]5-CT from human 5-HT1D receptor expressed in HEK-T cell membranes at 10 uM incubated for 90 mins under dark condition by microbeta scintillation counting method relative to control.
The target in experiment [4] is 5-hydroxytryptamine receptor 1E (Homo sapiens) (UniProt P28566). The experiment can be described thus: Displacement of [3H]5-HT from human 5-HT1E receptor expressed in HEK cell membranes at 10 uM incubated for 90 mins under dark condition by microbeta scintillation counting method relative to control. The following applies: HEK293.
5-hydroxytryptamine receptor 1E (Homo sapiens), sequence (P28566 whole entry): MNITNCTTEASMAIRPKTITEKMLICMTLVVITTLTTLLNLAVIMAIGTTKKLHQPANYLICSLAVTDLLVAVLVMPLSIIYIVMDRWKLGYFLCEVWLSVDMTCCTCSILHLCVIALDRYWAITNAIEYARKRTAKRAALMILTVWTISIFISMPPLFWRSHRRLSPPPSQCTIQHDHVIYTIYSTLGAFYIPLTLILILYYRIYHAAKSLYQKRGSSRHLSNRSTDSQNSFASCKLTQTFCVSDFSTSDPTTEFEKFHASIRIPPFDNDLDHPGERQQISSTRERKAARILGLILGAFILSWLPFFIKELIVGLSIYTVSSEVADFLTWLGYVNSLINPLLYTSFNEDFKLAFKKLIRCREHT
The target of experiment [5] is 5-hydroxytryptamine receptor 4 (Homo sapiens) (UniProt Q13639). The experiment can be described thus: Displacement of [3H]GR113808 from human 5-HT4 receptor at 10 uM incubated for 90 mins under dark condition by microbeta scintillation counting method relative to control.
5-hydroxytryptamine receptor 4 (Homo sapiens), sequence (Q13639 whole entry): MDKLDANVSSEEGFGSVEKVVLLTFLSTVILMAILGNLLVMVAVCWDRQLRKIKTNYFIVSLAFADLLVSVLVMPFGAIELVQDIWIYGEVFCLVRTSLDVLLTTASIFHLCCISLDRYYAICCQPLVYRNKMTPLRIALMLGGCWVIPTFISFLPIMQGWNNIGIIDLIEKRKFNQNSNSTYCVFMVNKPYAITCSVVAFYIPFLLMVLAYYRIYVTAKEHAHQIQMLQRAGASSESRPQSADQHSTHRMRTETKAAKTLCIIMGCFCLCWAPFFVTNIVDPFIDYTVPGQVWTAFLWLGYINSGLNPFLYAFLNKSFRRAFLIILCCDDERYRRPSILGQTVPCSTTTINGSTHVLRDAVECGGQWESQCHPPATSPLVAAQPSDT
Experiment [6] concerns the target 5-hydroxytryptamine receptor 6 (Homo sapiens) (UniProt P50406). The experiment can be described thus: Displacement of [3H]LSD from human 5-HT6 receptor expressed in HEK cell membranes at 10 uM incubated for 90 mins under dark condition by microbeta scintillation counting method relative to control. The following applies: HEK293.
The target of experiment [7] is 5-hydroxytryptamine receptor 7 (Homo sapiens) (UniProt P34969). The experiment can be described thus: Displacement of [3H]LSD from human 5-HT7A receptor expressed in HEK cell membranes at 10 uM incubated for 90 mins under dark condition by microbeta scintillation counting method relative to control. The following applies: HEK293.
5-hydroxytryptamine receptor 7 (Homo sapiens), sequence (P34969 whole entry): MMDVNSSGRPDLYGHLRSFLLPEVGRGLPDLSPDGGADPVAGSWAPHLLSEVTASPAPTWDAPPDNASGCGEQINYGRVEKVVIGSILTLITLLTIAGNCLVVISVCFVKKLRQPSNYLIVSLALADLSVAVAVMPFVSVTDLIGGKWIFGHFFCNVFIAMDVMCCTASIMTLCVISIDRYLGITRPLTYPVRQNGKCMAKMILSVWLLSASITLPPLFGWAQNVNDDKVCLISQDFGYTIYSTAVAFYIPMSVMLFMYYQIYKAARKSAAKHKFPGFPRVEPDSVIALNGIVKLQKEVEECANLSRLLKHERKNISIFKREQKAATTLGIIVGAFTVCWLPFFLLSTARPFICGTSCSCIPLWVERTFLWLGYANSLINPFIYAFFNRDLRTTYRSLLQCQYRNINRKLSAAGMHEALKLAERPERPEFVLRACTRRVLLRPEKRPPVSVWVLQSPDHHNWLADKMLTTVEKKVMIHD
Experiment [8] has as its target T2, 5-hydroxytryptamine receptor 3A (Homo sapiens) (UniProt P46098).
T2 sequence (whole entry): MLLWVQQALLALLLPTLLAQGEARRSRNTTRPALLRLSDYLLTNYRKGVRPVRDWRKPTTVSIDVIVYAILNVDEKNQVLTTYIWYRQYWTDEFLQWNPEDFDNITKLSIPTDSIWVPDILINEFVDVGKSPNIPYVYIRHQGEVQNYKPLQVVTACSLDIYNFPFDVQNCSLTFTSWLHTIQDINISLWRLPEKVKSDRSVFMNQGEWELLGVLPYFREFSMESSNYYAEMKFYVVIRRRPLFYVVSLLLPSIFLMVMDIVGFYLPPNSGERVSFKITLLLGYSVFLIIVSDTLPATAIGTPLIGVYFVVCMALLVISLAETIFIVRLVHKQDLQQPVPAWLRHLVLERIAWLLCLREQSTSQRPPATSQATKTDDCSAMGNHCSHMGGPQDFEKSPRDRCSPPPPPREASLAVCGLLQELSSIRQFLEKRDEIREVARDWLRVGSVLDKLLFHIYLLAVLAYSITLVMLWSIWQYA
Nature of the experiment: Displacement of [3H]GR65630 from human 5-HT3 receptor expressed in HEK-T cell membranes at 10 uM incubated for 90 mins under dark condition by microbeta scintillation counting method relative to control.

Experiment [9] deals with 5-hydroxytryptamine receptor 5A (Homo sapiens) (UniProt P47898). The experiment can be described thus: Displacement of [3H]LSD from human 5-HT5A receptor expressed in Flp-In-CHO cell membranes incubated for 90 mins under dark condition by microbeta scintillation counting method relative to control. Further details: concentration or dose not given beside the values.
5-hydroxytryptamine receptor 5A (Homo sapiens), sequence (P47898 whole entry): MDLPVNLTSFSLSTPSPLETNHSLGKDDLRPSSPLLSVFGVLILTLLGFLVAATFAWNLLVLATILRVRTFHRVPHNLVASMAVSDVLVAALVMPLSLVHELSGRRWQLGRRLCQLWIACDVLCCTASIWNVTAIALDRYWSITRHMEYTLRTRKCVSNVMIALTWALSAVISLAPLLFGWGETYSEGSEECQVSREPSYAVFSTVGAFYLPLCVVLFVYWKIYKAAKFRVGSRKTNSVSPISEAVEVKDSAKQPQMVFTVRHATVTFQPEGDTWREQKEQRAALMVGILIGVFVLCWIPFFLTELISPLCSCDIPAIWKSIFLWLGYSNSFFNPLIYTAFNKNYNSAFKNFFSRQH
Experiment [10] addresses T3, 5-hydroxytryptamine receptor 2A (Homo sapiens, UniProt P28223). The experiment can be described thus: Displacement of [3H]ketanserin from human 5-HT2A receptor expressed in HEK-T cell membranes at 10 uM incubated for 90 mins under dark condition by microbeta scintillation counting method relative to control.
Experiment [11] deals with T4, 5-hydroxytryptamine receptor 2B (Homo sapiens, UniProt P41595). Nature of the experiment: biochemical. Format: cell-based, HEK293.
T4 sequence (P41595 whole entry): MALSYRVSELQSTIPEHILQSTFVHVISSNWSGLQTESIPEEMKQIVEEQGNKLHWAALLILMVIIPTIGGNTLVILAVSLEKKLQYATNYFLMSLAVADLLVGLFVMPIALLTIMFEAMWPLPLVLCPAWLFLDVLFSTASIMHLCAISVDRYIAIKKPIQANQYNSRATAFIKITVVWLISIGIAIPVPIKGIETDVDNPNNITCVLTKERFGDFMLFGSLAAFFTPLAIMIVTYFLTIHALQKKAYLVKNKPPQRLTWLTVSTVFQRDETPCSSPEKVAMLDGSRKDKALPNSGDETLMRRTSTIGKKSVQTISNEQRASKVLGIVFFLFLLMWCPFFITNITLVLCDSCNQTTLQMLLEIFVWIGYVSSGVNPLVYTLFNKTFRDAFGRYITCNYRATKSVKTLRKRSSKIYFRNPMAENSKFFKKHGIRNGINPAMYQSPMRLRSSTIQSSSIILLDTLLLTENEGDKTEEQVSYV
The target of experiment [12] is T5, 5-hydroxytryptamine receptor 2C (Homo sapiens, UniProt P28335).
T5 sequence (P28335 whole entry): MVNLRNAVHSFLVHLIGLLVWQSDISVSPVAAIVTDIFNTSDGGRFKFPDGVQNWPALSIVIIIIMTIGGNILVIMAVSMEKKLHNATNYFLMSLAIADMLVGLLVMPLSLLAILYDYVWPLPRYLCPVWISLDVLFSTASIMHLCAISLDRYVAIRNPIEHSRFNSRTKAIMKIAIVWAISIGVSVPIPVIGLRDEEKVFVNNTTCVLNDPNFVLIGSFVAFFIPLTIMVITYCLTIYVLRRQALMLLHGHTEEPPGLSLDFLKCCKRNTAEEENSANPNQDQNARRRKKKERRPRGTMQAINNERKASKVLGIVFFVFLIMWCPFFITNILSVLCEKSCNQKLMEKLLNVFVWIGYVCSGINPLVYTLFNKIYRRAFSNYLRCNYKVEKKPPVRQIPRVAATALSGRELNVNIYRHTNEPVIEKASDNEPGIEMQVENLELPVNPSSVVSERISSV
The experiment can be described thus: Displacement of [3H]mesulergine from human 5-HT2CR expressed in Flp-In HEK cell membranes incubated for 90 mins under dark condition by microbeta scintillation counting method. Also noted: species or system HEK293.

The target of experiment [13] is T6, 5-hydroxytryptamine receptor 2C (Homo sapiens) (UniProt P28335).
T6 sequence (whole entry): T5 sequence (P28335 whole entry)
Nature of the experiment: Displacement of [3H]mesulergine from human 5-HT2CR expressed in Flp-In HEK cell membranes at 10 uM incubated for 90 mins under dark condition by microbeta scintillation counting method relative to control. The following applies: HEK293.

A further experiment deals with T7, Adenosine receptor A1 (Homo sapiens, UniProt P30542).
T7 sequence (P30542 whole entry): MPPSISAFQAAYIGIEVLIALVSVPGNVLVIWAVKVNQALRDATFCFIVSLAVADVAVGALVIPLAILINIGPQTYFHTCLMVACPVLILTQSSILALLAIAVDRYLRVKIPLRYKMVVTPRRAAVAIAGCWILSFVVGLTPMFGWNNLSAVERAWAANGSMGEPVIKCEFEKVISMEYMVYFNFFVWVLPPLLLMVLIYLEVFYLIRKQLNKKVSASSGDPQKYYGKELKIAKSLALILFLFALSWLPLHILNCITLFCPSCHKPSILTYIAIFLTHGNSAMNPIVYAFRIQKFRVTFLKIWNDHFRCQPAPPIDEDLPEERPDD
The experiment can be described thus: Displacement of [3H]N6-phenylisopropyladenosine from recombinant human A1AR expressed in CHO cell membranes after 60 mins by liquid scintillation counting method.

A further experiment addresses Adenosine receptor A2a (Homo sapiens, UniProt P29274). Nature of the experiment: Displacement of [3 H]2-[p-(2-carboxyethyl)phenyl-ethylamino]-5'-N-ethylcarboxamidoadenosine from recombinant human adenosine receptor A2A expressed in HEK293 cell membranes at 10 uM after 60 mins by liquid scintillation counting method relative to control.
A further experiment addresses T8, Adenosine receptor A3 (Homo sapiens, UniProt P0DMS8).
T8 sequence (P0DMS8 whole entry): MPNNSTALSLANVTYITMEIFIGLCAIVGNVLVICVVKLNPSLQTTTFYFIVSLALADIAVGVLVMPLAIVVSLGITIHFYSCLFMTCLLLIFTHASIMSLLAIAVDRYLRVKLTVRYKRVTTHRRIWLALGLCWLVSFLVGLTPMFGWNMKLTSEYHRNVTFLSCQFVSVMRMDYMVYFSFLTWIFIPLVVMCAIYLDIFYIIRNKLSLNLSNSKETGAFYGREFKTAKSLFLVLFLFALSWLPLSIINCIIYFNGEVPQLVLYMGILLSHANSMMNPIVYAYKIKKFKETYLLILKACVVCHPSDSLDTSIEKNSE
Nature of the experiment: Displacement of [125l]N 6-(4-amino-3-iodobenzyl)adenosine-5'-N-methyluronamide from recombinant human A3AR expressed in CHO cell membranes after 60 mins by gamma counting method.

Another experiment addresses Translocator protein (Homo sapiens, UniProt P30536). The experiment can be described thus: Inhibition of TSPO (unknown origin).
The target of experiment [14] is T3, 5-hydroxytryptamine receptor 2A. Nature of the experiment: Displacement of [3H]ketanserin from human 5-HT2A receptor expressed in HEK-T cell membranes incubated for 90 mins under dark condition by microbeta scintillation counting method.
Experiment [15] addresses T4, 5-hydroxytryptamine receptor 2B. The following applies: HEK293, at 10 µM.
Experiment [16] addresses T9, Adenosine receptor A1 (Homo sapiens) (UniProt P30542).
T9 sequence (whole entry): T7 sequence (P30542 whole entry)
The experiment can be described thus: Displacement of [3H]N6-phenylisopropyladenosine from recombinant human A1AR expressed in CHO cell membranes at 10 uM after 60 mins by liquid scintillation counting method relative to control.

Experiment [17] in a line: Displacement of [3H]DTG from sigma2 receptor in rat PC12 cells after 90 mins by microbeta scintillation counting method. The following applies: pc-12. Format: cell-based.
In experiment [18] the target is Adenosine receptor A3 (Homo sapiens) (UniProt P0DMS8). The experiment can be described thus: Displacement of [125l]N 6-(4-amino-3-iodobenzyl)adenosine-5'-N-methyluronamide from recombinant human A3AR expressed in CHO cell membranes at 10 uM after 60 mins by gamma counting method relative to control.
For experiment [19], the target named is 5-hydroxytryptamine receptor 3A (Homo sapiens, UniProt P46098). Nature of the experiment: Displacement of [3H]GR65630 from human 5-HT3 receptor expressed in HEK-T cell membranes incubated for 90 mins under dark condition by microbeta scintillation counting method.

5-hydroxytryptamine receptor 6 (Homo sapiens), sequence (P50406 whole entry): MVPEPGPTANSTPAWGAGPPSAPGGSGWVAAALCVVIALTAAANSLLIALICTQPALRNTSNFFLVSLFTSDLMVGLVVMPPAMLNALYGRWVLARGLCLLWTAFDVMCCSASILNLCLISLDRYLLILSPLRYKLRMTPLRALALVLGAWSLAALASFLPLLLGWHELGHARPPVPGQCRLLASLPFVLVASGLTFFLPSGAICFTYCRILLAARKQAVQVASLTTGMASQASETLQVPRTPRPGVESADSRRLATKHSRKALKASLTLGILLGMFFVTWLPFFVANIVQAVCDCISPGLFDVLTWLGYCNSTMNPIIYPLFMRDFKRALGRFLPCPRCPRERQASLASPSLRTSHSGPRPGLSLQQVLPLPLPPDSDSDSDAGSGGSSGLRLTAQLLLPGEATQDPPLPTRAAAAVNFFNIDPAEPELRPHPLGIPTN
T3 sequence (P28223 whole entry): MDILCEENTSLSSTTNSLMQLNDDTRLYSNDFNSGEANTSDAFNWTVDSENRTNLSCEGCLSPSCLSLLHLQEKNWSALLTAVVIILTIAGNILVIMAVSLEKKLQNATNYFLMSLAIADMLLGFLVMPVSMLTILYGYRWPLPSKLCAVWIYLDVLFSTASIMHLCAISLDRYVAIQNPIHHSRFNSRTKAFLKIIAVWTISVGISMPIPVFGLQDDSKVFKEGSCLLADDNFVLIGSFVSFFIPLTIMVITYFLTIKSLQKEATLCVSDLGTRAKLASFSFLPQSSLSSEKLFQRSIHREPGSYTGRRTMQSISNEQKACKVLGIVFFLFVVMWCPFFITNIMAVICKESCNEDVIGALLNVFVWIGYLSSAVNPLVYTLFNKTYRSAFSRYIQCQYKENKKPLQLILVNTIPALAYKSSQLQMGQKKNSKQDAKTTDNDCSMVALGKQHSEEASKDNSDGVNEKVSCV
Adenosine receptor A2a, sequence (P29274 whole entry): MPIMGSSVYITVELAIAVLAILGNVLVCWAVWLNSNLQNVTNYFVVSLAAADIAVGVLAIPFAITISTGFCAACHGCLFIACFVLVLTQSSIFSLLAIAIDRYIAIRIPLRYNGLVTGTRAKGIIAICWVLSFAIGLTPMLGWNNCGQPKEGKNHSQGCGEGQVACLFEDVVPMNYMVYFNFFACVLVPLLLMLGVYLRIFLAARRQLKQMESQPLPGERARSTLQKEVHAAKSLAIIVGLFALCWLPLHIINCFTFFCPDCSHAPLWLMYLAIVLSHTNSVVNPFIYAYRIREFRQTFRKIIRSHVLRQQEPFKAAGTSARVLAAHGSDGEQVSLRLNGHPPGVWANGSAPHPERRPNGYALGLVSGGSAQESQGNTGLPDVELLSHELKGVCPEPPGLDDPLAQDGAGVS
5-hydroxytryptamine receptor 1D (Homo sapiens), sequence (P28221 whole entry): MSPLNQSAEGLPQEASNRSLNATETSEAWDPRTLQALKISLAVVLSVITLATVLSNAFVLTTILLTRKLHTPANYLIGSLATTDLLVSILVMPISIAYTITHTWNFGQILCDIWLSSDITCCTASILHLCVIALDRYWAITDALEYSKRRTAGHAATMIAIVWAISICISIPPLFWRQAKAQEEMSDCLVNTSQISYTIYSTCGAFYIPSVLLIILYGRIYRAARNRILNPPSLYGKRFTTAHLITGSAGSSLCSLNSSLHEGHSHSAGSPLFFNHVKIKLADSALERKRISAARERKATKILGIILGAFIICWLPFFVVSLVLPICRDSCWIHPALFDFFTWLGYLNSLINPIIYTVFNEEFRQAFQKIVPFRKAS
Translocator protein, sequence (P30536 whole entry): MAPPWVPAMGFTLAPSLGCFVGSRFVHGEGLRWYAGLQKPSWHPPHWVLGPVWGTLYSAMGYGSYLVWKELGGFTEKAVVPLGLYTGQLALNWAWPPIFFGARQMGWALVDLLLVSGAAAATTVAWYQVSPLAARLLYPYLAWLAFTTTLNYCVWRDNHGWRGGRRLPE

With `CCCOC(=O)[C@@]12C[C@@H]1[C@@H](n1cnc3c(NC(C4CC4)C4CC4)nc(Cl)nc31)[C@H](O)[C@@H]2O`, the inhibition in experiment [1], in [2], in experiment [3], in [4], in experiment [5] and in [6] was less than 50% each time. For the same molecule, the inhibition in experiment [7] is less than 50%; in experiment [8] it was less than 50%; in experiment [9], less than 50%; in experiment [10] it was less than 10%; in [13], more than 50%; at Adenosine receptor A2a, 19%. Also, the inhibition in experiment [15] was more than 50%. Besides, the Ki in experiment [11] is 0.045 µM; in experiment [12], 0.205 µM; on Adenosine receptor A1 it was 0.44 µM; at Adenosine receptor A3 it was 0.499 µM; on Translocator protein, 2.2 µM; in experiment [14], more than 10 µM.
In the case of `CNC(=O)[C@@]12C[C@@H]1[C@@H](n1cnc3c(N(C)C)nc(C#Cc4ccc(Cl)s4)nc31)[C@H](O)[C@@H]2O`, the inhibition in experiment [1], in experiment [2], in experiment [3], in experiment [4], in [5] and in experiment [6] was less than 50% throughout. Also, the inhibition in experiment [7] was less than 50%; in experiment [8], less than 50%; in [9] it was less than 50%; in experiment [10] it was 27%; in experiment [13], more than 50%; in experiment [16], 25%. Further, the inhibition was 15% on Adenosine receptor A2a and less than 10% in experiment [15]. The Ki in [12] was 8.5 µM; at Adenosine receptor A3 it was 0.0235 µM; in [17] it was 7.3 µM; in experiment [14] it was more than 10 µM.
On to `CCOC(=O)[C@@]12C[C@@H]1[C@@H](n1cnc3c(N(C)C)nc(Cl)nc31)[C@H](O)[C@@H]2O`, for which the inhibition in experiment [1], in [2], in [3], in [4], in experiment [5] and in [6] was less than 50% each time. Besides, the inhibition is less than 50% in experiment [7]; less than 50% in experiment [8]; less than 50% in experiment [9]; less than 10% in experiment [10]; more than 50% in experiment [13]; less than 10% in [16]. Also, the inhibition at Adenosine receptor A2a is 13%; in experiment [15] it was more than 50%; in experiment [18], 30%. Also, the Ki in experiment [11] was 0.671 µM; in [12], 1.35 µM; in experiment [14] it was more than 10 µM.
As for `O[C@@H]1[C@H](O)[C@@H]2C[C@@H]2[C@H]1n1cnc2c(NCc3cccc(Cl)c3)nc(Cl)nc21`, the inhibition in experiment [1], in experiment [2], in experiment [3], in experiment [4], in experiment [5] and in experiment [6] was less than 50% throughout. Further, the inhibition is less than 50% in experiment [7]; less than 50% in [9]; less than 10% in experiment [10]; more than 50% in [13]; more than 50% on Adenosine receptor A2a; more than 50% in experiment [15]. The Ki was 2.39 µM in experiment [11]; 4.1 µM in experiment [12]; 1.6 µM on Adenosine receptor A1; more than 10 µM in [14]; 3.26 µM in experiment [19].
